# Measurements: patent US10207003B2, “Liquid pentablock co-polymer formulations for sustained delivery of therapeutics” (i-novion, Inc., priority 2016, dated 2019)
# Assays:
# [1] = Dissolving hydrophobic active agents in PTSsol as clear aqueous liquids; format: physicochemical
# Protocol: (§1) Hydrophobic active agents that are difficult to formulate in aqueous compositions are typically formulated as emulsions or suspensions. […] Similarly, PTSsol for 0.5% celecoxib was prepared in 10% PTS121GH in PBS buffer at pH 7.4. […] Referring to FIGS. 2 and 3 the stability of 2.5% brinzolamide in 25% 1-0 GH polymer dispersion in PBS at pH 7.4 was analyzed over 8 weeks, using HPLC.
# [2] = Visual clarity of PTSsol formulations on storage; format: physicochemical; details: for Time formulation remained clear and stable: PTSsol, stored at room temperature or refrigerated at 4° C., 1% cyclosporine, up to 2.5% brinzolamide; for Time formulation remained visibly clear without drug precipitating out: stored refrigerated, exemplary PTSsol, 1% and 2.5% brinzolamide, 1% cyclosporine A, 0.07% and 0.1% difluprednate
# Protocol: as §1
# In this example, an artificial tear composition using PTSsol polymers was generated. PTS solutions are clear, bioadhesive, biocompatible, and biodegradable polymers ideal for sensitive medical applications, such as preparing artificial tears for relieving eye discomfort caused by dry eye. […] Additional excipients can be added to the formulation as desired.
Compound,Drug concentration dissolved as clear liquid ([1]; in 10% PTS1-0GH PTSsol),Drug concentration dissolved as very clear liquid ([1]; in 10% of 121GH polymer) [%],Time formulation remained clear and stable [2] [weeks],Time formulation remained clear and stable ([2]; listed as BRZ) [weeks],Time formulation remained visibly clear without drug precipitating out [2] [days],Dissolution in hydrophilic polymer ([1]; directly in PTS121 GH polymer),"Drug concentration of stable aqueous formulation ([1]; first dissolved in gelling polymer 113 GH or 122 GH, then mixed with PTS121 GH) [%]"
CCN[C@H]1CN(CCCOC)S(=O)(=O)c2sc(S(N)(=O)=O)cc21 [brinzolamide],up to 2.5%,2.5,8,≥ 8,28,–,–
CCCC(=O)O[C@]1(C(=O)COC(C)=O)CC[C@H]2[C@@H]3C[C@H](F)C4=CC(=O)C=C[C@]4(C)[C@@]3(F)[C@@H](O)C[C@@]21C [difluprednate],–,–,–,–,8,does not readily dissolve,≤ 0.1
